Test results taken from US11963953B2, “Deuterated compounds for restoring mutant p53 function” (PMV Pharmaceuticals, Inc., priority 2022, dated 2024).
Blank lines part the entries; values can stand above or below the compound they belong to.

Experiments:
[1] = target: T1, p53 Y220C (Homo sapiens, UniProt P04637, Y220C); assay: In vitro DNA binding activity assay (HTRF / TR-FRET) of recombinant His-tagged p53 Y220C DNA binding domain with biotin-labeled consensus DNA; type: biochemical; details: concentration required to increase DNA binding activity of p53 Y220C by 50%
T1 construct: made in house; host or cells: E. coli
Method: The ability of a compound of the disclosure to stabilize p53 Y220C and increase the DNA binding activity of p53 Y220C was measured by a homogeneous time-resolved fluorescence (HTRF) assay. Recombinant His-tagged p53 Y220C used in the HTRF assay was expressed in the bacterium E. coli. The recombinant protein was a truncation mutant containing only amino acids 94-312 of p53, which encompassed the DNA binding domain (DBD) of p53 (SEQ ID NO.: 1). The His-tagged p53 Y220C was tested for DNA binding ability with a consensus sequence of DNA (DNA duplex with a sequence of 5 ¢-[…]-3 ¢; SEQ ID NO.: 2). SEQ ID NO.: 2 was then conjugated with a biotin label and used in the activity assay.
The binding of the recombinant His-tagged p53 Y220C protein and the biotin-labeled consensus DNA was measured using fluorescence resonance energy transfer (FRET). For the FRET assay, the binding between the p53 mutant and the DNA sequence was measured by detecting the fluorescence of the interaction between an anti-His antibody conjugated to allophycocyanin (APC) and streptavidin conjugated to europium to detect the biotin-labeled DNA.
The test compounds were prepared as 4.5 mM stock solutions in dimethyl sulfoxide (DMSO). The compounds of the disclosure were used to test the stabilization of p53 Y220C and increase in DNA binding activity of p53 Y220C. The stock solutions were then serially diluted 3-fold in DMSO, and 1.2 μL of the diluted solutions was added to each well of a 384-well polypropylene black plate. 30 μL of a 181 nM solution of the recombinant His-tagged p53 Y220C protein and 12.1 nM of APC conjugated anti-His tag antibody in ice-cold Assay Buffer 1 (50 mM Tris-HCl, pH 7.4; 75 mM KCl; 0.75 mM DTT; and 0.2 mg/mL bovine serum albumin (BSA) was added to each well containing the test compounds.
As a background control, […] of Assay Buffer 1 containing 12.1 nM of APC anti-His antibody was also added into a second set of serially-diluted compound plates. […] The assay signals were monitored by reading excitation at 340 nm, and emission fluorescence at 615 nm and 665 nm on a plate reader.
Normalized time-resolved fluorescence resonance energy transfer (TR-FRET) assay signal (Rn) was calculated by the formula: Rn=[(A-Ba-CD)/(D-Bd)](Dc-Bd) where A was the fluorescence intensity of the sample at 665 nm; D was the fluorescence intensity of the sample at 615 nm; Ba and Bd were plate background readings at 665 nm and 615 nm, respectively; and Dc was the fluorescence intensity of 1.8 nM Eu-SA in the assay buffer at 615 nm.
The cross-talk factor (C) was determined by the following formula: C═(Ac—Ba)/(Dc-Bd) where Ac was the fluorescence intensity of 1.8 nM Eu-labeled anti-FLAG antibody in the assay buffer at 665 nm. […] The SC150 values were calculated using either Prism™ or ActivityBase™.

[2] = Pharmacokinetic analysis after single oral administration to male cynomolgus monkeys, with plasma levels of parent and glucuronidation metabolites; details: cynomolgus monkey, in vivo, 25 mg/kg
Method: The pharmacokinetics (PK) of a deuterated compound and a comparator compound were measured following a 2-phase single oral (PO) administration to male cynomolgus monkeys. Compound and metabolite levels were monitored for up to 48 hours following dosing.
A group of 3 non-naïve male cynomolgus monkeys were used in this 2-phase study with a 5-day washout period between each phase. Animals in Phases 1 or 2 were administered the compounds by single oral administration at 25 mg/kg. The vehicle used for the oral studies was 2% (w/v) hydroxypropylcellulose (HPC) w/v in water [“vehicle” ]. Administration was PO in fasted (overnight) animals. […] The body weights of the animals were in the range from 2.28 to 3.32 kg for males on the dosing day of Phase 1. All animals received a single oral gavage administration in each Phase.
Compound formulations were prepared in accordance with the following procedure: 257.0 mg of Compound C (4-[3-[4-[[(3S,4R)-3-fluoro-1-methyl-4-piperidyl]amino]-1-(2,2,2-trifluoroethyl)indol-2-yl]prop-2-ynylamino]-N-methyl-3-(methoxy)benzamide) was added to a pre-calibrated beaker, manually mixed with 1 mL of vehicle, stirred for 5 min to generate homogenous opaque suspension. An additional 40 mL of vehicle was added with manual mixing, and stirred for 5 min to generate a homogenous opaque suspension. An additional 9.218 mL of vehicle was added, and stirred overnight to generate a homogenous opaque suspension. 260.3 mg of Compound 3 (4-[3-[4-[[(3S,4R)-3-fluoro-1-methyl-4-piperidyl]amino]-1-(2,2,2-trifluoroethyl)indol-2-yl]prop-2-ynylamino]-N-methyl-3-(trideuteriomethoxy)benzamide) was added to a pre-calibrated beaker, manually mixed test article with 49.978 mL of vehicle, stirred for 30 min to generate a homogenous opaque suspension. Formulations were stored at room temperature for up to 15 days after preparation.
The detailed dosing and sampling regimens are described in the following table.
The concentrations of the compounds in all dosing solutions were determined by UPLC-UV [ACQUITY UPLC, ACQUITY UPLC BEH C8 1.7 m 2.1×100 mm Column, Mobile phase A: 0.1% FA & 2 mM HCOONH4 in water/ACN (v:v, 95:5), Mobile phase B: 0.1% FA & 2 mM HCOONH4 in ACN/water (v:v, 95:5)]. Three aliquots were taken from the bottom, middle and top regions of PO dosing solutions.
Plasma samples were collected at 0.25, 0.5, 1, 2, 4, 8, 12, 24 and 48 hours post-dose in Phases 1 and 2. Blank Plasma: Whole blood was collected from available stock animal into commercially available tubes containing K2-EDTA on wet ice and processed for plasma. The plasma was pooled to serve as blank monkey plasma. PK plasma: Approximately 0.5 mL of blood was collected at each time point via peripheral vessel from each study animal. The actual time for each sample collection was recorded. The deviations on sampling time were less than 1 minute for the time points pre-dose through 1 hour post-dose, and less than 5% of the nominal time for time points after 1 hour post-dose. All blood samples were transferred into commercial tube (Jiangsu Kangjian medical supplies Co., Ltd.) containing K2-EDTA (0.85-1.15 mg) and placed on wet ice until processed for plasma. Plasma samples were prepared within 1 hour of collection by centrifuging the blood samples at approximately 2-8° C., 3200×g for 10 minutes. Plasma samples of about 0.1 mL×2 aliquots (one for BA, and the other one for back up) for each time point were transferred into labeled polypropylene micro-centrifuge tubes and stored frozen in a freezer set to be maintained at −60° C. or lower until LC-MS/MS analysis. Concentrations of the compounds and metabolite in plasma samples were determined by a liquid chromatography tandem mass spectrometry (LC-MS/MS) method [Triple Quad 6500 Plus, ESI (+) ionization mode, MRM detection mode]. The plasma concentration of the compounds and metabolites in study animals was subjected to a non-compartmental pharmacokinetic analysis by using the Phoenix WinNonlin software (version 6.3 or above, Pharsight). […]

SMILES: [2H]C([2H])([2H])NC(=O)c1ccc(NCC#Cc2cc3c(N[C@@H]4CCN(C)C[C@@H]4F)cccc3n2CC(F)(F)F)c(OC)c1 [Compound 5, 4-[3-[4-[[(3S,4R)-3-fluoro-1-methyl-4-piperidyl]amino]-1-(2,2,2-trifluoroethyl)indol-2-yl]prop-2-ynylamino]-3-methoxy-N-(trideuteriomethyl)benzamide]
SC150 [1]: ++ (++ = 10 nM < SC150 < 50 nM)

SMILES: [2H]C([2H])([2H])NC(=O)c1ccc(NCC#Cc2cc3c(N[C@@H]4CCN(C)C[C@@H]4F)cccc3n2CC(F)(F)F)c(OC([2H])([2H])[2H])c1 [Compound 6, 4-[3-[4-[[(3S,4R)-3-fluoro-1-methyl-4-piperidyl]amino]-1-(2,2,2-trifluoroethyl)indol-2-yl]prop-2-ynylamino]-3-(trideuteriomethoxy)-N-(trideuteriomethyl)benzamide]
SC150 [1]: +++ (+++ = 0 nM < SC150 < 10 nM)

More lines, now with the values ahead:

SC150 [1]: +++ (+++ = 0 nM < SC150 < 10 nM)
SMILES: [2H]C([2H])([2H])Oc1cc(S(C)(=O)=O)ccc1NCC#Cc1cc2c(N[C@@H]3CCN(C([2H])([2H])[2H])C[C@@H]3F)cccc2n1CC(F)(F)F (racemic) [Compound 4, rac-N-[(3S,4R)-3-fluoro-1-(trideuteriomethyl)-4-piperidyl]-2-[3-[4-methylsulfonyl-2-(trideuteriomethoxy)anilino]prop-1-ynyl]-1-(2,2,2-trifluoroethyl)indol-4-ylamine]

SC150 [1]: +++ (+++ = 0 nM < SC150 < 10 nM)
SMILES: [2H]C([2H])([2H])Oc1cc(S(C)(=O)=O)ccc1NCC#Cc1cc2c(N[C@H]3CCN(C)C[C@H]3F)cccc2n1CC(F)(F)F (racemic) [Compound 10, Rac-N-((3R,4S)-3-fluoro-1-methylpiperidin-4-yl)-2-(3-((2-(methoxy-d3)-4-(methylsulfonyl)phenyl)amino)prop-1-yn-1-yl)-1-(2,2,2-trifluoroethyl)-1H-indol-4-amine]

% of total analyte area, analyte Parent [2]: 42.0%
AUC0-24 % Rel. to Cpd C value, analyte Parent [2]: 160%
AUC(0-inf) [2]: 118 µg·h/mL
AUCExtra [2]: 0.599%
Cmax [2]: 10000 ± 4180 ng/mL
Tmax [2]: 2 h
half-life [2]: 6.37 h
increase in AUC over Compound C [2]: about 60%
reduction in glucuronidation metabolite (first named) [2]: 70%
reduction in glucuronidation metabolite (second named) [2]: 10%
AUC(0-t) ([2]; AUC0-24): 107 ± 29.2 µg·h/mL
AUC(0-t) ([2]; AUC0-24, analyte Parent): 107 µg·h/mL
AUC(0-t) ([2]; AUC0-last): 118 µg·h/mL
SMILES: [2H]C([2H])([2H])Oc1cc(C(=O)NC)ccc1NCC#Cc1cc2c(N[C@@H]3CCN(C)C[C@@H]3F)cccc2n1CC(F)(F)F [Compound 3, 4-[3-[4-[[(3S,4R)-3-fluoro-1-methyl-4-piperidyl]amino]-1-(2,2,2-trifluoroethyl)indol-2-yl]prop-2-ynylamino]-N-methyl-3-(trideuteriomethoxy)benzamide]
